“Also recorded” adds a separate entry of the source.

Assay [1] concerns primary mouse CD8+ T cells. Kind of assay: PD-1 expression after in vitro treatment of primary mouse CD8+ T cells. The format is cell-based. To be noted: activated primary mouse CD8+ T cells, measured at days 6, 7, 8 and 9. How it is done: FIG. 9 illustrates the results of in vitro treatment of primary mouse CD8+ T cells with Aak1 inhibitor (iAak1 aka LP-935509) on PD-1 expression. Primary mouse CD8+ T cells were treated with the indicated concentration of LP-935509 and PD-1 expression was measured at days 6, 7, 8, and 9.

For assay [2], the system named is primary mouse CD8+ T cells. Kind of assay: Cell proliferation after in vitro treatment of primary mouse CD8+ T cells. The format is cell-based. As to conditions: primary mouse CD8+ T cells treated on day 0, optionally activated, assessed days 1-7. How it is done:
FIG. 10 illustrates the results of in vitro treatment of primary mouse CD8+ T cells with Aak1 inhibitor (iAak1) on cell proliferation. Primary mouse CD8+ T cells were treated on day 0 with the indicated concentration of LP-935509 and optionally activated. Cell proliferation was assessed at days 1, 2, 3, 4, 5, 6, and 7.

Assay [3] relates to primary mouse splenocytes. Kind of assay: PD-1 expression on CD8+ T cells after in vitro treatment of primary mouse splenocytes. The format is cell-based. To be noted: mouse splenocytes treated with 2 μM iAak1 in vitro. How it is done:
FIG. 11 illustrates the results of in vitro treatment of primary mouse splenocytes with Aak1 inhibitor (iAak1) on PD-1 expression. Mouse splenocytes were treated with 2 μM concentration of iAak1 and PD-1 expression was assayed in CD8+ T cells.

Assay [4] has as its system EG7 tumors. Description: Growth of EG7 tumors in mice. It counts as in vivo. To be noted: oral gavage on same days as twice weekly IP aPD1, from 3 days post inoculation, vs DMSO. From the text:
FIG. 12 illustrates the results of Aak1 inhibitor (iAak1) on the growth of EG7 tumors in mice. Mice were inoculated with EG7 tumor cells. Treatment began three (3) days post tumor inoculation. All mice received twice weekly IP injections of aPD1. Five (5) mice received DMSO, and five (5) mice received iAak1 via oral gavage on same days as aPD1 treatment.

The subject of assay [5] is CD8+ T cells in EG7 tumor model. Kind of assay: PD-1 expression in tumor-infiltrating versus splenic CD8+ T cells in EG7 tumor model. It counts as in vivo, mice. To be noted: oral gavage with twice weekly IP aPD1, vs DMSO, listed as iAak1. From the text: FIG. 13 illustrates the results of Aak1 inhibitor (iAak1) on PD-1 expression in tumor-infiltrating versus splenic CD8+ T cells in an EG7 tumor model. Mice were inoculated with EG7 tumor cells. Treatment began three (3) days post tumor inoculation. All mice received twice weekly IP injections of aPD1. Five (5) mice received DMSO, and five (5) mice received Aak1inh via oral gavage on same days as aPD1 treatment.

Assay [6] deals with EG7 cells. Kind of assay: Growth of EG7 cells in vitro. The format is cell-based. To be noted: concentrations as high as 2 μM; listed as iAak1. From the text: FIG. 14 illustrates the results of Aak1 inhibitor (iAak1) on growth of EG7 cells in vitro.
In assay [7] the test system is A20 tumors. Description: Growth of A20 tumors in mice. It counts as in vivo. From the text:
FIG. 15 illustrates the results of Aak1 inhibitor (iAak1) on the growth of A20 tumors in mice. Mice were inoculated with A20 tumor cells. Treatment began ten (10) days post tumor inoculation. All mice received twice weekly IP injections of aPD1. Ten (10) mice received DMSO, and ten (10) mice received iAak1 via oral gavage daily.

With `COc1ncccc1-c1cnn2ccc(N3CCN(C(=O)OC(C)C)CC3)nc12` [LP-935509], in assay [1], the PD-1 expression entry is “transient increase”. Further, the cell proliferation result in assay [2] was “modest enhancement”; in assay [2] (listed as iAak1) it was “modestly enhances”. Further, in assay [3], the “PD-1 expression in CD8+ T cells” value was “modest increase; also recorded: increases”. Also, the “EG7 tumor growth in vivo” value in assay [4] is listed as “increased”. The “PD-1 expression in CD8+ T cells isolated from tumors” value in assay [5] is recorded as “increased”. In addition, the “EG7 cell proliferation in vitro” value in assay [6] is on record as “not observed to directly increase; also recorded: did not directly increase”. Further, the “CD3+ T cell infiltration of the tumor” value in assay [7] (A20 tumors, daily oral gavage with twice weekly IP aPD1, vs DMSO) was “moderate inhibit”. Further, the “A20 tumor growth in vivo” value in assay [7] (daily oral gavage with twice weekly IP aPD1, from 10 days post inoculation, vs DMSO, listed as iAak1) was “increased; also recorded: enhanced”.

The values are drawn from patent publication US12195744B2, “Identification of T-cell trafficking genes and uses thereof for increasing infiltration of T-cells into solid tumors” (UNIVERSITY OF IOWA RESEARCH FOUNDATION, priority 2017, dated 2025).
